Assays:
[1] = test system: bone marrow derived osteoclast precursor cells; assay: Differentiation of bone marrow derived osteoclast precursor cells into mature osteoclasts (TRAP staining); format: cell-based, ddY mice; conditions: mean ± SD, n=3, 48-well plates
Protocol: Bone marrow cells separated from the vertebrae of ddY mice (male, 7-9 week old) were cultivated on cell culture plates for 3 days in the presence of a macrophage colony-stimulating factor (M-CSF, 10 ng/ml). The suspended cells were washed with PBS and removed whereas the cells adhering to the plates were used as osteoclast precursor cells. Following the addition of more M-CSF (10 ng/ml) and a soluble RANK ligand (sRANKL, 40 ng/ml), the precursors were cultivated for 3-4 days in order to induce the maturation of osteoclasts. Before this cultivation, either compound 1 or a solvent (ethanol) alone was added in order to see what effects they would have. The maturation of osteoclasts was evaluated by staining the cultivated cells with a tartrate resistant acid phosphatase (TRAP) and counting the number of trinuclear and higher TRAP stained cells. Table 1 and FIG. 1 show the mean and SD values for the experiment in which the number of mature osteoclasts that were produced per well in 48-well plates was evaluated for n=3.

[2] = AUC measurement in oral administration, test with mice; format: in vivo; conditions: plasma, 30 mg/kg, 5% gum arabic suspension; for AUC(0-inf): female, ICR, mouse, po; for AUC∞: ICR mice
Protocol: (§1) The AUC of specified compounds in oral administration was measured by the following tests.
A 5% gum arabic suspension (10 ml/kg) of a test substance (30 mg/kg) was forcibly administered orally into ICR mice (female, 8-10 week old) by means of a mouse stomach probe and after the lapse of specified periods of time (15 minutes, 30 minutes, and 1, 2, 4, 6, 8, 24 and 48 hours), whole blood was taken from the abdominal large vein (n=3 for each time period). The concentration of the test substance in the sampled plasma was measured by HPLC (eluant: acetonitrile/water) and AUC was determined by moment analysis from the average plasma concentration for each time period. The test substances were compound 1, compound 2, compound 4 and compound 5. Two control compounds were used, one being the first component prepared in step 1 of Example 1 (control compound 2) and the other being the second component (control compound 1).

[3] = AUC measurement in oral administration, test with monkeys; format: in vivo; conditions: female, cynomolgus monkey, 3 mg/kg, PEG/water/ethanol solution, plasma
Protocol: as §1
A PEG/water/ethanol [8/4/3 (v/v)] solution (3 ml/kg) of a test substance (3 mg/kg) was administered orally into cynomolgus monkeys (female, 3-5 years old, 2.5-4 kg) through a catheter inserted from the nostrils into the stomach and about 1 ml of blood was taken over a period of 48 hours at specified time intervals (15 minutes, 30 minutes, and 1, 2, 4, 6, 8, 10, 24 and 48 hours). The concentration of the test substance in the sampled plasma was measured by use of LC/MS/MS (ESI, eluant: acetonitrile/water) and AUC was determined by moment analysis. The test substances were compound 1 and compound 4. The second component prepared in step 1 of Example 1 was used as control compound 1.

[4] = test system: increase in the weight of the uterus induced by 17β-estradiol benzoate; assay: Anti-estrogen activity in oral administration (suppression of estradiol-induced increase in uterus weight in ovariectomized mice); format: in vivo; conditions: ovariectomized ICR mice, oral 10 mg/kg once a day for 3 days, 17β-estradiol benzoate 0.1 μg s.c.
Protocol: In the test, each of the test compounds and a control compound were suspended in a 5% gum arabic solution and administered to the mice orally in doses of 10 mg/kg on a once-a-day basis for 3 days. Twenty-four hours after the administration of the final dose, the test animals were slaughtered and the uterus was extracted and its weight was measured.

[5] = biological target: T1, intranuclear estrogen receptor (EgR) (Homo sapiens, UniProt P03372); assay: Estrogen receptor downregulating activity (intranuclear EgR content in MCF-7); format: cell-based; conditions: MCF-7 cells; for DC50: 2 days with compound, ER-EIA, read-out: IC50 (intranuclear EgR content)
T1 construct: endogenous in cells; host or cells: MCF-7 (ATCC)
Protocol: Tris(hydroxymethyl)aminomethane, dithiothreitol and glycerol were obtained from Nacalai Tesque. Protease inhibitor tablets were obtained from Boehringer Mannheim. Human breast cancer cell line MCF-7 was obtained from ATCC, fetal calf serum (FCS) from Hyclone, DMEM from Invitrogen, and PBS(−) from Nissui.
Tris-HCl buffer (1 mol/L, pH=7.4) was diluted 50-fold with distilled water to a concentration of 20 mmol/L (pH=7.4). To the diluted buffer, dithiothreitol and glycerol were added to give respective final concentrations of 1 mmol/L and 10%. Further, protease inhibitor tablets were added, with one tablet per 50 mL of buffer. The thus conditioned solution was used as a solubilizing buffer.
Samples for quantitating the intranuclear estrogen receptor (EgR) were prepared by the following procedure. MCF-7 cultivated in 5% FCS/DMEM was sown on 6-cm dishes at a concentration of 4×10^5 cells/dish and cultivated for 3 days; cultivation was continued for an additional 2 days in the presence of compound 1 or compound 2 at final concentrations of 1-100 nmol/L or in the presence of compound 4 at final concentrations of 1-1,000 nmol/L or compound 5 at final concentrations of 1-10,000 nmol/L. Thereafter, the cells were washed with PBS(−), mixed with the solubilizing buffer, subjected to two cycles of freezing at −80° C. and thawing at room temperature, and centrifuged at 4° C. for 10 minutes at 4000 rpm (centrifuge: TOMY, Model MX-150). To the precipitation, the solubilizing buffer containing 500 mmol/L of NaCl was added and the mixture was treated with a micro-tube mixer (TOMY, Model MT-360) at 4° C. for about 30 minutes. Following centrifugation at 4° C. for 30 minutes at 15,000 rpm (centrifuge: TOMY, Model MX-150), the supernatant was collected and stored at −80° C. as an extracted nuclear sample. The EgR content in the extracted nuclear sample was measured with an EgR assay kit (ER-EIA “ABBOT” of Dynapot).

breast cancer = conditions: cited from earlier work

T1 sequence (P03372 whole entry): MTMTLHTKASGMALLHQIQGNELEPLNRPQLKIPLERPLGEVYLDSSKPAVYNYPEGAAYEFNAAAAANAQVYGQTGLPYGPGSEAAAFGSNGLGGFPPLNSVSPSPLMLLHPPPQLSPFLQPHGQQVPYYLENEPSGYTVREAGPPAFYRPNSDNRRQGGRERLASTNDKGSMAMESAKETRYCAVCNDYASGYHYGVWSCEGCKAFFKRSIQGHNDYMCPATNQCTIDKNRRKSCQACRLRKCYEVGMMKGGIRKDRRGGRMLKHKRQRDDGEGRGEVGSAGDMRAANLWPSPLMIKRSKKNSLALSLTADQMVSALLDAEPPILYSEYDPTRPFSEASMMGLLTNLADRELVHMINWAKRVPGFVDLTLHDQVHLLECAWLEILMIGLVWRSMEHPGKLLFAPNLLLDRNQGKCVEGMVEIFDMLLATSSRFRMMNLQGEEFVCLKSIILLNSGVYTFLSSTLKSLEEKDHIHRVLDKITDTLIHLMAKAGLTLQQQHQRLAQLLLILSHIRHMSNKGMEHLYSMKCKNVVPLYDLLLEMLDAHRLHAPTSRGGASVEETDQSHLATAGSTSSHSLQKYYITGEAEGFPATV

| Structure (SMILES) | AUC(0-inf) [3] | Intranuclear EgR content (in words) [5] | DC50 [5] | AUC∞ [2] | also measured |
| --- | --- | --- | --- | --- | --- |
| C[C@]12CC[C@@H]3c4ccc(O)cc4C[C@@H](CCCCCCCCC(CCCC(F)(F)C(F)(F)C(F)(F)C(F)(F)F)C(=O)O)[C@H]3[C@@H]1CCC2=O (single isomer, unassigned) [Compound 1, 10-(3-hydroxy-17-oxo-estra-1,3,5(10)-trien-7α-yl)-2-(4,4,5,5,6,6,7,7,7-nonafluoroheptyl)decanoic acid] | 2.42 µg·h/mL | reduced the intranuclear EgR content in a dose-dependent manner | 8.4 nM |  | No. of mature osteoclasts per well ([1]; M-CSF + sRANKL + compound at 10^−4 mol/L): 0 ± 0; No. of mature osteoclasts per well ([1]; M-CSF + sRANKL + compound at 10^−5 mol/L): 34 ± 10; AUC(0-inf) [2]: 468 µg·h/mL; Percent suppression (%) of the increase in the weight of the uterus [4]: 96% |
| C[C@]12CC[C@@H]3c4ccc(O)cc4C[C@@H](CCCCCCCCC(CCCC(F)(F)C(F)(F)C(F)(F)C(F)(F)F)C(=O)O)[C@H]3[C@@H]1CCC2=O (single isomer, unassigned) [Compound 2, 10-(3-hydroxy-17-oxo-estra-1,3,5(10)-trien-7α-yl)-2-(4,4,5,5,6,6,7,7,7-nonafluoroheptyl)decanoic acid] |  | reduced the intranuclear EgR content in a dose-dependent manner | 8.7 nM | 722.55 µg·h/mL |  |
| C#C[C@]1(O)CCC2C3C(CC[C@@]21C)c1ccc(O)cc1C[C@H]3CCCCCCCCC(CCCC(F)(F)C(F)(F)C(F)(F)C(F)(F)F)C(=O)O (single isomer, unassigned) [Compound 4, 10-(3,17β-dihydroxy-17α-ethynyl-estra-1,3,5(10)-trien-7α-yl)-2-(4,4,5,5,6,6,7,7,7-nonafluoroheptyl)decanoic acid] | 3.8 µg·h/mL | reduced the intranuclear EgR content in a dose-dependent manner | 14 nM | 202.10 µg·h/mL | Percent suppression (%) of the increase in the weight of the uterus ([4]; 10 mg/kg): 94% |
| C#C[C@]1(O)CCC2C3C(CC[C@@]21C)c1ccc(O)cc1C[C@H]3CCCCCCCCC(CCCC(F)(F)C(F)(F)C(F)(F)C(F)(F)F)C(=O)O (single isomer, unassigned) [Compound 5, 10-(3,17β-dihydroxy-17α-ethynyl-estra-1,3,5(10)-trien-7α-yl)-2-(4,4,5,5,6,6,7,7,7-nonafluoroheptyl)decanoic acid] |  | reduced the intranuclear EgR content in a dose-dependent manner | 100 nM | 661.00 µg·h/mL | Percent suppression (%) of the increase in the weight of the uterus ([4]; 10 mg/kg): 96% |
| C[C@]12CC[C@@H]3c4ccc(O)cc4C[C@@H](CCCCCCCCC(CCCC(F)(F)C(F)(F)C(F)(F)C(F)(F)F)C(=O)O)[C@H]3[C@@H]1CC[C@@H]2O (single isomer, unassigned) [Control compound 1, 10-(3,17β-dihydroxyestra-1,3,5(10)-trien-7α-yl)-2-(4,4,5,5,6,6,7,7,7-nonafluoroheptyl)decanoic acid, reference compound] | 0.42 µg·h/mL |  |  |  | AUC(0-inf) [2]: 274 µg·h/mL |
| C[C@]12CC[C@@H]3c4ccc(O)cc4C[C@@H](CCCCCCCCC(CCCC(F)(F)C(F)(F)C(F)(F)C(F)(F)F)C(=O)O)[C@H]3[C@@H]1CC[C@@H]2O (single isomer, unassigned) [Control compound 2, 10-(3,17β-dihydroxyestra-1,3,5(10)-trien-7α-yl)-2-(4,4,5,5,6,6,7,7,7-nonafluoroheptyl)decanoic acid, reference compound] |  |  |  | 469.73 µg·h/mL |  |
| C[C@]12C[C@H](CCCCCCCCC(CCCC(F)(F)C(F)(F)C(F)(F)C(F)(F)F)C(=O)O)[C@@H]3c4ccc(O)cc4CC[C@H]3[C@@H]1CCC2=O (stereo partly drawn) [Compound 3, 10-(3-hydroxy-17-oxo-estra-1,3,5(10)-trien-11β-yl)-2-(4,4,5,5,6,6,7,7,7-nonafluoroheptyl)decanoic acid] |  |  |  |  | Percent suppression (%) of the increase in the weight of the uterus [4]: 99% |
| C[C@]12CC[C@@H]3c4ccc(O)cc4C[C@@H](CCCCCCCCC[S+]([O-])CCCC(F)(F)C(F)(F)F)[C@H]3[C@@H]1CC[C@@H]2O (stereo partly shown) [Faslodex] |  |  |  |  | Objective response rate and duration of response to breast cancer (breast cancer; clinical tests, versus a SERM drug and an aromatase inhibitor): superior to a SERM drug and an aromatase inhibitor; Efficacy against tamoxifen-resistant breast cancer (breast cancer; tamoxifen-resistant breast cancer): effective against tamoxifen-resistant breast cancer |

— patent US20060063944A1, “Estrone derivatives and process for producing same” (CHUGAI SEIYAKU KABUSHIKI KAISHA, priority 2002, published 2006)
